Reference: PubChem BioAssay (NCI)
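Step 1: Grow cells in 96-well plates. Step 2: Expose to compound for 48 hours at 5 concentrations. Step 3: Interpolate endpoints linearly; if unreached, use highest concentration. TGI denotes the concentration required for complete inhibition of growth.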

Test system: P388/ADR leukemia
Assay: NCI tumour cell line growth inhibition, 48 h

SMILES: CC(=O)O[C@H]1C(=O)O[C@@H]2C[C@H]3C(C)=CC(=O)[C@@H](O)[C@]3(C)[C@H]3[C@@]4(O)OC[C@]32[C@@H]1[C@@H](C)[C@H]4O
- TGI: 7.51 µM

SMILES: CNNCc1ccc(C(=O)NC(C)C)cc1
- TGI: > 500 µM
